Where two headings read alike, the source gives them in different places.
Assays:
[1] = Pharmacokinetic studies in C57BL/6 mice (plasma and tissues); type: in vivo, mouse; details: for AUC(0-t) / Cmax / Tmax / AUC(0-inf) / half-life / bioavailability: both sexes, C57BL/6, mouse; for bioavailability: read-out: F (absolute bioavailability)
Method: To overcome the generally poor PK profile of catechins, we developed a proprietary formulation that allows for the delivery of these drugs in high concentrations for oral (PO) or intranasal (IN) use. Our liquid formulation is based on the solubilizer and penetration enhancer (2-hydroxypropyl)-β-cyclodextrin (HP-β-CD), PEG-400, and water. This vehicle allows us to achieve high drug concentration in dosing solution (up to 20% w/w) when needed. PK studies were conducted for 1c in adult male and female C57BL/6 mice (n = 3/sex/time point) using (1) a single IV dose (5 mg/kg), (2) an IN dose (60 mg/kg, 5 µL of a clear solution/nostril/twice), and (3) a single PO dose (100 mg/kg). We analyzed the concentration of the drug in several tissues, including the brain, lungs, liver, and plasma. We observed that this class of molecules is stable in circulation; however, when the tissues are harvested for bioanalytical work, the drug undergoes rapid degradation, probably because of the direct contact with oxygen and metals, which catalyzes its rapid degradation/oxidation. We were able to stabilize the drug in blood by the immediate addition of ascorbic acid and TCEP [29]; however, the same was not possible with solid organs such as the brain and liver, which need to be collected through surgery and homogenized before any stabilizing agent can be added. Therefore, tissue PK data tend to vary.
C57BL/6J mice were given a single dose of drug via the IN or PO route. […] For PO delivery, we replaced water with saline. The volume for IN delivery was 5 µL/nostril, and the volume used for oral delivery was 10 mL/kg. After sacrifice, blood (500 µL) was collected into K2EDTA microtubes and kept on ice all times (must be centrifuged within 30 min of collection). Blood was centrifuged in EDTA vacuum at 4 °C at 15,000× g for 4 min; ~250 µL of plasma was collected into polyethylene tubes containing 50 µL of AA/TCEP stabilizing solution (20 mM ascorbic acid and 13 mM TCEP in 50 mM K2HPO4 buffer; the pH of the solution was adjusted to 6.5 using 2 M NaOH). Then, 200 µL of the collected plasma was mixed with (1) 24 µL of a solution of 10% ascorbic acid and 0.1% EDTA in 40 mM NaH2PO4; (2) 40 µL of 50 mM sodium phosphate (pH 7.4); (3) 500 units of β-D-glucuronidase type X-A from Escherichia coli (Sigma Chemical Co, St Louis, MO, USA), and (4) 4 units of sulfatase type VIII from abalone entrails (Sigma Chemical Co). The mixture was incubated at 37 °C for 45 min. Plasma was then extracted by the addition of 0.5 mL ACN; the mixture was vortex-mixed for 2 min, then snap-frozen with isopropanol/carbon dioxide dry ice, and the upper layer of ACN was removed. The process was repeated another 2 times. The ACN fractions were pooled into a polyethylene tube kept on ice. The combined fractions were evaporated under a gentle stream of nitrogen at ambient temperature. The residue obtained after evaporation was reconstituted in 200 µL of 75 mM citric acid//25 mM ammonium acetate: ACN (75:25 by vol), and vortexed vigorously for 5 min, and 20 µL of the resulting solution was injected into the LC-MS/MS column.
Drug analysis in tissues: About ~0.4 g of the tissue was homogenized with 1 mL of ice-cold 0.4 M sodium phosphate buffer containing 6 mg of ascorbic acid and 0.5 mg of Na2EDTA (final pH of 6.5). After centrifugation at 4 °C at 15,000× g for 4 min, the supernatant was collected into polyethylene tubes containing 50 µL of the AA/TCEP stabilizing solution. Then 1 U of sulfatase and 250 U of β-glucuronidase were added to the abovementioned homogenized mixture. Samples were incubated at 37 °C for 45 min, then extracted, dried, and resuspended in a manner similar to that for plasma. Samples were then analyzed by LC-MS/MS.

[2] = biological target: T1, 6xHis-tagged rat-truncated DYRK1A (residues 1-497) (Rattus norvegicus, UniProt Q63470); experiment: ELISA-based non-radioactive kinase assay, DYRK1A; type: biochemical; details: read-out: DYRK1A IC50
T1 construct: 6xHis-tagged rat-truncated DYRK1A (residues 1-497); 6xHis; made in house

[3] = test system: LPS-induced inflammation in C57BL/6J mice; experiment: LPS-induced inflammation model; type: in vivo, mouse
Method: Neuroinflammation is an important factor contributing to cognitive impairment and neurodegenerative diseases such as PD, and the administration of LPS is frequently used to study neuroinflammation-associated diseases in mice.
Each group consisted of six male mice. […] Animals were pretreated for 3 days with the drug of choice; then, treatment with LPS commenced on day 0, and on the 5th day of LPS treatment, the drug was administered half an hour before LPS injection. One hour after LPS treatment, the animals were anesthetized with a mixture of ketamine, xylazine 2%, atropine, and saline (4:2.5:1:2.5). The body temperature of mice under anesthesia was maintained by applying a heating blanket and monitored using a rectal thermometer. After anesthesia, the animals underwent cardiac perfusion with ice-cold saline for three minutes (3 mL/minute via peristaltic pump) via the left ventricle. The right atrium was cut as an outflow route. The right hemisphere was post-fixed overnight in 4% PFA in PBS at 4 °C and stored in 1xPBS containing 0.1% (v/w) sodium azide at 4 °C. The left hemisphere, hippocampus, cortex, midbrain, and brainstem were microdissected, immersed in liquid nitrogen in separate tubes (with one-fifth of the rest of the brain tissue), and stored in microfuge tubes at −80°. TNFα (in both plasma and the hippocampus) was analyzed with ELISA, and the p-tau (AT-8 antibody) level was recorded in the hippocampus and cortex with WB.

[4] = In vitro and in vivo safety studies (not detailed)
[5] = inhaled or intranasal, IN (60 mg/kg), brain
[6] = inhaled or intranasal, IN (60 mg/kg), plasma
[7] = PO 30 mg/kg BID, from 3 days before LPS (i.p. 750 µg/kg, 5 days)

- Tlast ([1]; IN (60 mg/kg), brain): 8 h
- Tlast ([1]; IN (60 mg/kg), plasma): 24 h
- Tlast ([1]; PO (100 mg/kg), brain): 24 h
- Tlast ([1]; PO (100 mg/kg), plasma): 24 h
- AUC(0-t) ([1]; PO (100 mg/kg), brain): 2390 ng·h/mL
- Cmax ([1]; PO (100 mg/kg), brain): 110 ng/mL
- Tmax ([1]; PO (100 mg/kg), brain): 2 h
- AUC(0-inf) ([1]; PO (100 mg/kg), plasma): 4280 ng·h/mL
- AUC(0-t) ([1]; PO (100 mg/kg), plasma): 4170 ng·h/mL
- Cmax ([1]; PO (100 mg/kg), plasma): 684 ng/mL
- Tmax ([1]; PO (100 mg/kg), plasma): 1 h
- half-life ([1]; PO (100 mg/kg), plasma): 4.7 h
- AUC(0-t) [1, 5]: 116 ng·h/mL
- Cmax [1, 5]: 18 ng/mL
- Tmax [1, 5]: 0.5 h
- AUC(0-inf) [1, 6]: 16100 ng·h/mL
- AUC(0-t) [1, 6]: 15800 ng·h/mL
- Cmax [1, 6]: 2350 ng/mL
- Tmax [1, 6]: 2 h
- half-life [1, 6]: 4.8 h
- AUC(0-inf) ([1]; plasma, iv, i.v. (5mg/kg)): 1390 ng·h/mL
- AUC(0-t) ([1]; plasma, iv, i.v. (5mg/kg)): 1280 ng·h/mL
- Cmax ([1]; plasma, iv, i.v. (5mg/kg)): 657 ng/mL
- Tmax ([1]; plasma, iv, i.v. (5mg/kg)): 0 h
- half-life ([1]; plasma, iv, i.v. (5mg/kg)): 3.2 h
- bioavailability ([1]; plasma, other: intranasal (IN), 60 mg/kg, IN (60 mg/kg), plasma): 100%
- bioavailability ([1]; plasma, po, 100 mg/kg, PO (100 mg/kg), plasma): ~16%
- Tlast ([1]; i.v. (5mg/kg)): 10 h
- IC50 [2]: 73 nM
SMILES: COc1cc(C(=O)O[C@@H]2Cc3c(O)cc(O)cc3O[C@H]2c2cc(O)c(O)c(O)c2)c(F)c(O)c1O [Compound 1c]
- inhibition of tau phosphorylation ([3]; IN 30 mg/kg BID, LPS i.p. 750 µg/kg): lack of efficacy
- tau phosphorylation in the hippocampus ([3]; PO 30 mg/kg BID, LPS i.p. 750 µg/kg): reduced tau phosphorylation
- TNFα accumulation in plasma [3, 7]: significantly (p < 0.05) decreasing
- TNFα accumulation in the brain [3, 7]: significantly (p < 0.05) decreasing
- in vitro and in vivo safety studies, outcome [4]: have not reveled any concerns
